In EP0519427A2, “N-substituted-3-iodopropiolamide, production and use thereof” (priority 1991, dated 1992):

Legend:
wood rot fungi = test: Preserving activity for wood preservatives, overall statement for both fungi; assay type: cell-based, Tyromyces palustris, Coriolus versicolor; details: summary of Table 2
Experimental: This test was conducted according to Specification No.1 of Japan Wood Preserving Association, enacted in 1979, amended in 1989 and titled "Test methods of preserving activity for wood preservatives used in the coating, spraying and dipping treatment".
• ① Tyromyces palustris (Ber. et Curt.) Murr., FFPRI 0507 --"Ouzuratake" • ② Coriolus versicolor(L. ex Fr.) Quélet, FFPRI 1030 --"Kawaratake"
These two fungi are classified as wood rot fungi.
Culture media comprised culture jars (cylindrical jars of bottom diameter 8-9 cm, opening diameter 6-7 cm and height 15-18 cm), in which quartz sand of 250 g (the size of which corresponds to 20-30 mesh) was put first, and then the solution of 70 ml containing 2.0 % malt extracts and 1.0 % peptone was introduced, over which chips of the beech or other broadleaf tree were spread at about 2 mm thickness, and then sterilized at 120 °C for 30 minutes in the wet heated sterilizer.
Fungi were cultured at 26 ± 2 °C with shaking using the culture solution of 2.0 % malt extracts and 1.0 % peptone. After sufficient breeding was obtained, the fungi solution of about 3 ml was spread all over the culture medium, and then the fungi were cultured at 26 ± 2 °C with the relative humidity of over 70 %. After 10-15 days when the fungi layer sufficiently covered the culture medium, the fungi were served for the tests.
Wood specimens were the sapwood of intact cedar and beech, the dimension of which was 5 mm thick, 20 mm wide and 40 mm long. The grain face was of 20 mm width and 40 mm length. The side faces were treated with cold-setting epoxy resin.
The antimicrobial operation was performed with specifying types of fungi for corresponding type of trees. The combinations were as follows: Cedar----Tyromyces palustris ("Ouzuratake") Beech----Coriolus versicolor ("Kawaratake")
The test specimens were of two types, treated and untreated specimens, respectively.
The treated specimens referred to the wood specimens coated by brushing, spraying or dipping with wood preservatives. The amount of applied preservatives was 110 ± 10 g/m².
The amount of applied preservatives for each test specimen was calculated by the following equation:
The amount of applied preservatives (g/m²)=(W₁-W₂)/A wherein W₁ : weight of the test specimen after absorption(g), W₂ : weight of the test specimen before absorption(g) and A: surface area of test specimen except both butt surfaces (m²)
2-7-1 The test specimens prepared in the previous section were dried at 60 ± 2 °C with a recirculating dryer for 48 hours, and were allowed to stand in a desiccator for about 30 minutes, and then the weight (W₃) was measured to an accuracy of 0.01 g.
2-7-2 Three of each treated and untreated specimens were assembled in the Teflon casing. After sterilizing, the two assemblies were put on their 40 × 5 mm face on the fungi layer in the separate jar. They were kept at 26 ± 2 °C under the relative humidity of over 70 % for eight weeks.
2-7-3 After the eight weeks had elapsed, the test specimens were taken out, and mycelia and other attachments of them were removed neatly. After air-drying for 24 hours, the test specimens were dried at 60 ± 2 °C in a recirculating dryer for 48 hours, and were allowed to stand in a desiccator for about 30 minutes, and then the weight (W₄) was measured to an accuracy of 0.01 g.
The test results were presented by the ratio of average weight loss of test specimens due to antimicrobial operation. The standard deviation and coefficient of variation were also determined. The ratio of weight loss for each test specimen was calculated by the following equation, and its average was also determined: The ratio of weight loss(%) = (W₃ - W₄) / W₃ × 100 [formula] . Lower value of the ratio of weight loss corresponds to higher wood preserving activity. […]

[1] = test system: Coptofermes formosanus SHIRAKI; test: Anti-termite activity, contact toxicity on treated quartz sand; assay type: in vivo
Experimental: This test was conducted on the basis of the method described in Specification No.11 of Japan Wood Preserving Association, enacted in 1981 and titled "The test methods of anti-termite activity for anti-termite agent used in the coating, spraying and dipping treatment, (1) Laboratory test methods".
The termite to be used was Coptofermes formosanus SHIRAKI ("ieshiroari").
4-2-1 The treated quartz sand was prepared as follows : The quartz sand, which passed through a sieve with 60 mesh screen, of 3 g was mixed with the BACTRO-AGAR solution of 1 ml with good agitation. Then, water content was adjusted to 5 %.
4-2-2 The test quartz sand was prepared as follows : The anti-termite agent solution of intended concentration (ppm) was added to the above treated quartz sand, then was mixed, and then was allowed to stand for 14 days to vaporize solvents.
4-2-3 The test quartz sand of 4 g were put into a Petri dish (6 cm in diameter) sterilized with dry heat.
4-2-4 Ten termite workers were randomly sampled from their nest, and then put on the quartz sand.
4-2-5 Each Petri dish was placed in a vessel containing water in the bottom, and then the vessel was allowed to stand in the constant temperature room at 28 ± 2 °C for 14 days. The number of the dead termites was observed and recorded. The first day : every 2 hours for 8 hours. After the second day : every 24 hour.
4-2-6 Test was repeated three times for each concentration of anti-termite agent solution.
4-3-1 Each time when observing, the number of healthy termites and dead termites were recorded.
4-3-2 The results are shown below in Table 4. […]

[2] = concentration 100 ppm, term of contact 1 day
[3] = concentration 100 ppm, term of contact 2 days
[4] = concentration 100 ppm, term of contact 3 days
[5] = concentration 100 ppm, term of contact 5 days
[6] = concentration 1000 ppm, term of contact 1 day
[7] = concentration 1000 ppm, term of contact 2 days
[8] = concentration 1000 ppm, term of contact 3 days
[9] = concentration 1000 ppm, term of contact 5 days

| Compound | wood preserving activity (statement in words) (wood rot fungi) | Death rate (%) [1, 2] | Death rate (%) [1, 3] | Death rate (%) [1, 4] | Death rate (%) [1, 5] | Death rate (%) [1, 6] | Death rate (%) [1, 7] | Death rate (%) [1, 8] | Death rate (%) [1, 9] |
| --- | --- | --- | --- | --- | --- | --- | --- | --- | --- |
| CC(C)(C)NC(=O)C#CI [Example 1, N-(tert-Butyl)-3-iodopropiolamide] | excellent wood preserving activity | 0% | 0% | 30% | 100% | 0% | 50% | 100% | 100% |
| CCCCCCCCCCNC(=O)C#CI [Example 2, N-(n-Decyl)-3-iodopropiolamide] | excellent wood preserving activity | – | – | – | – | – | – | – | – |
| CCCCNC(=O)C#CI [Example 4, N-(n-Butyl)-3-iodopropiolamide] | excellent wood preserving activity | 0% | 0% | 30% | 100% | 0% | 30% | 100% | 100% |
| CCC(C)NC(=O)C#CI (stereo not shown) [Example 5, N-(sec-Butyl)-3-iodopropiolamide] | excellent wood preserving activity | – | – | – | – | – | – | – | – |
| CC(C)CNC(=O)C#CI [Example 6, N-Isobutyl-3-iodopropiolamide] | excellent wood preserving activity | – | – | – | – | – | – | – | – |
| CCCCCNC(=O)C#CI [Example 7, N-(n-Pentyl)-3-iodopropiolamide] | excellent wood preserving activity | – | – | – | – | – | – | – | – |
| CCCCCCNC(=O)C#CI [Example 8, N-(n-Hexyl)-3-iodopropiolamide] | excellent wood preserving activity | 0% | 0% | 20% | 100% | 0% | 0% | 70% | 100% |
